Test results: patent US9340577B2, “HLA binding motifs and peptides and their uses” (priority 1992, dated 2016)
Read-outs that look alike come from different tables or passages of the source. No end group written: not given here.

How the values were obtained:
[1] = target: A2.1 HLA molecules (Homo sapiens, UniProt P04439, D140Y/D185E/D98H/E176V/E277Q/G131W/G231S/I119V/I121R/I166T/I218V/L300P/L318F/N151K/N90K/P208A/P217A/Q86G/Q94H/R138H/R169H/T345S); assay type: binding; parameters: A*0201 / A2.1 Binding / A2 Bind. / A2 / A2.1 (binding capacity): scale not given here
[2] = target: HLA-A1 (A*0101) (Homo sapiens, UniProt P04439, A114D/A174V/A182V/D101N/D185E/E176A/E190D/L180R/Q94H/R68K/S129P/T187R/V100A/V91M/W191G); assay: biochemical; assay type: binding
[3] = target: HLA-A3.2 (A*0301) (Homo sapiens, UniProt P04439); assay: biochemical; assay type: binding
[4] = target: HLA-A11 (A*1101) (Homo sapiens, UniProt P04439, A114D/D185E/E176A/F33Y/L180Q/S129P/T187R); assay: biochemical; assay type: binding
[5] = target: DRB1*1501 (Homo sapiens, UniProt P01903+P01911); assay: biochemical; assay type: binding
[6] = target: DRB1*1101 (Homo sapiens, UniProt P01903+P01911, A100R/A169T/A87E/I96F/K41T/L162R/M171V/P40S/Q125H/Q178H/Q39Y/Q99D/R42S/S66Y/T262R/V115G/W38E); assay: biochemical
[7] = target: DRB1*0901 (Homo sapiens, UniProt P01903+P01911, A100R/A103E/D57H/D86V/F55Y/F60I/F76Y/I96F/K127E/L162R/M171V/P40D/Q125H/Q99R/R33Q/R42F/S133A/S66N/T210M/V115G/W38K/Y107V/Y59G/Y89S); assay: biochemical; assay type: binding
[8] = target: DR1 (DRB1*0101) (Homo sapiens, UniProt P01903+P01911, A100R/D57E/F55L/F60I/F76Y/I96L/L162R/M171V/P40L/Q125E/R42F/V115G/Y59C); assay: biochemical; assay type: binding
[9] = target: DRB1*0802 (Homo sapiens, UniProt P01903+P01911, A100R/A103L/A169T/F76Y/H45Y/I96F/K41T/L162R/M171V/P40S/Q125H/Q178H/Q39Y/Q99D/R218S/R42G/S66Y/V115G/W38E); assay: biochemical; assay type: binding
[10] = target: DRB5*0101 (Homo sapiens, UniProt P01903+Q30154); assay: biochemical
[11] = target: DRB1*1302 (Homo sapiens, UniProt P01903+P01911, A100E/A169T/K41T/L162R/M171V/P40S/Q125H/Q178H/Q39Y/Q99D/R42S/S66N/T262R/V115G/W38E/Y61H); assay: biochemical; assay type: binding
[12] = target: DR7 (DRB1*0701) (Homo sapiens, UniProt P01903+P01911, A100R/A102G/A103Q/D57E/D86V/E43K/F76Y/K127E/L162R/M171V/P40G/Q125H/Q99D/R33Q/R42Y/R54Q/S133A/S66F/T210M/V115G/Y107V/Y59L/Y89S); assay: biochemical; assay type: binding
[13] = target: DRB1*0405 (Homo sapiens, UniProt P01903+P01911, A100R/A169T/D86S/F76Y/I96L/K127E/L162R/M171V/N62H/P40V/Q125Y/R42H/S133A/S149N/S66Y/V115G/V209L/W38E); assay: biochemical; assay type: binding
[14] = target: DR4w4 (DRB1*0401) (Homo sapiens, UniProt P01903+P01911, A100K/A169T/F76Y/I96L/K127E/L162R/M171V/N62H/P40V/Q125Y/R42H/S133A/S149N/S66Y/V115G/V209L/W38E); assay: biochemical; assay type: binding
[15] = target: A*3301 (Homo sapiens, UniProt P04439, A270S/D185E/E176V/E277Q/E87N/F33T/G231S/H175R/I121M/I218V/I322F/K168Q/K210R/L300P/L318F/M331R/P217A/Q86R/Q94H/R138Q/T323A/T345S/T97I/V358M/Y195H); assay: biochemical; assay type: binding
[16] = target: A*6801 (Homo sapiens, UniProt P04439, A269V/D185E/E176V/E277Q/E87N/F33Y/G231S/I121M/I166T/I218V/L180W/L300P/L318F/N151K/P208A/P217A/Q86R/R169H/T345S); assay: biochemical; assay type: binding
[17] = target: A31 (A*3101) (Homo sapiens, UniProt P04439, A270S/D185E/E176V/E277Q/F33T/G231S/G80R/H175R/I121M/I218V/I322F/K168Q/L300P/L318F/M331R/P217A/Q94H/R138Q/T323A/T345S/T97I/V358M); assay: biochemical; assay type: binding
[18] = target: A*0206 (Homo sapiens, UniProt P04439, D140Y/D185E/D98H/E176V/E277Q/F33Y/G131W/G231S/I119V/I121R/I166T/I218V/L300P/L318F/N151K/N90K/P208A/P217A/Q86G/Q94H/R138H/R169H/T345S); assay: biochemical; assay type: binding
[19] = target: A*6802 (Homo sapiens, UniProt P04439, A269V/D140Y/D185E/E176V/E277Q/E87N/F33Y/G231S/I121R/I166T/I218V/L180W/L300P/L318F/N151K/P208A/P217A/Q86R/R138H/R169H/S129P/T345S/V36M); assay: biochemical; assay type: binding
[20] = target: A*0202 (Homo sapiens, UniProt P04439, D140Y/D185E/D98H/E176V/E277Q/G131W/G231S/I119L/I121R/I166T/I218V/L180W/L300P/L318F/N151K/N90K/P208A/P217A/Q67R/Q86G/Q94H/R138H/R169H/T345S); assay: biochemical; assay type: binding
[21] = target: A*0203 (Homo sapiens, UniProt P04439, A173T/D140Y/D185E/D98H/E277Q/G131W/G231S/I119V/I121R/I166T/I218V/L180W/L300P/L318F/N151K/N90K/P208A/P217A/Q86G/Q94H/R138H/R169H/T345S); assay: biochemical; assay type: binding
[22] = target: HLA-A*0201 (HLA-A2.1) (Homo sapiens, UniProt P04439, D140Y/D185E/D98H/E176V/E277Q/G131W/G231S/I119V/I121R/I166T/I218V/L300P/L318F/N151K/N90K/P208A/P217A/Q86G/Q94H/R138H/R169H/T345S); assay: biochemical; assay type: binding

DRB1*1101, sequence (P01903 26-254 limits assumed, other chains not shown): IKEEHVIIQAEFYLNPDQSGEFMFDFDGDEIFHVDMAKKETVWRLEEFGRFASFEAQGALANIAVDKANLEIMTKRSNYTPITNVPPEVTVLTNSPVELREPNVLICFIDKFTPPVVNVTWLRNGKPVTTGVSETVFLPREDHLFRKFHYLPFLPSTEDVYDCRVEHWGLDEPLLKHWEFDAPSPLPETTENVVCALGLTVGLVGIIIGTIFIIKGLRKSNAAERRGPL
DRB1*1302, sequence (P01903 26-254 limits assumed, other chains not shown): as above

Row | Sequence | A2 Bind. [1] | A1 [2] | other results
1 | FLAIIWVDL | 0.0233 | 0.0233 | 
2 | VADKALKFY [Peptide E6-69] |  |  | binding to HLA-A3.2 (in words) ([3]; HPV 16 E6/E7 9-mers): bound; binding to HLA-A1 (in words) [2]: bound; binding class for HLA-A11.2 [4]: weak affinity; binding to HLA-A11.2 (in words) [4]: bound
3 | LLNATDIAVA | 0.0117 | 0.0117 | 
4 | AVLSIVNRV | 0.0132 | 0.0132 | 
5 | YVAWKYIYY [Peptide 88.0433] |  |  | IC50 [2]: 310 nM
6 | NTEVETQQMLQVEGR [Peptide 89.0002] |  |  | IC50 [5]: 15.5 µM; IC50 ([6]; Binding affinity DRB1 *1101): > 20 µM; IC50 [7]: > 20 µM; IC50 [8]: 4.98 µM; IC50 [9]: > 20 µM; IC50 ([10]; Binding affinity DRB5 *0101): > 20 µM; IC50 [11]: 2330 nM; IC50 [12]: 1850 nM; IC50 [13]: > 20 µM
7 | YSDIRELRHY [Peptide 86.0055] |  |  | IC50 [2]: 9.9 nM
8 | LLIAARIVEL | 0.1550 | 0.1550 | 
9 | HMLQLTVWGI | 0.0677 | 0.0677 | 
10 | FMIAATYNFAV | 0.4950 | 0.4950 | 
11 | GLLECCARCLV | 0.0515 | 0.0515 | 
12 | WLWYIKIFI | 0.0355 | 0.0355 | 
13 | TLQCKIKQII | 0.0200 | 0.0200 | 
14 | LLQYWSQEL | 0.0265 | 0.0265 | 
15 | LLNATDIAV | 0.0607 | 0.0607 | 
16 | RLTVSKLMSQLLNIP [89,0100] |  |  | IC50 [8]: 10.5 µM; IC50 [14]: > 20 µM; IC50 [13]: > 20 µM
17 | RVIEVLQRA | 0.1963 | 0.1963 | 
18 | LLGRRGWEV | 0.0142 | 0.0142 | 
19 | ALTVVWLLV | 0.0390 | 0.0390 | 
20 | IMIVGGLVGL | 0.0252 | 0.0252 | 
21 | SLLNATDIAV | 0.1050 | 0.1050 | 
22 | WALTVVWLL |  | 0.0415 | 
23 | ALLYKLDIV | 0.0362 | 0.0362 | 
24 | ALFLGFLGAA | 0.4950 | 0.4950 | 
25 | CVSHRGLYY [Peptide 88.0401] |  |  | IC50 [15]: > 20 µM; IC50 [3]: 27 nM; IC50 [16]: > 20 µM; IC50 [17]: > 20 µM; IC50 [2]: 108 nM

Row | Sequence | A2 Bind. [1] | A1 [2] | other results
26 | SLLTFMIAA | 0.5300 | 0.5300 | 
27 | FLGAAGSTM | 0.0190 | 0.0190 | 
28 | ALFLGFLGA | 0.0945 | 0.0945 | 
29 | TVWGIKQLQA | 0.0150 | 0.0150 | 
30 | FLYGALLLA | 1.9000 | 1.9000 | 
31 | RMYGVLPWI | 0.1650 | 0.1650 | 
32 | GLVGLRIVFA | 0.0195 | 0.0195 | 
33 | MLQLTVWGI | 0.2450 | 0.2450 | 
34 | RFEDPTRRPY [Peptide 78.0005] |  |  | IC50 [2]: 19200 nM
35 | IISLWDQSL | 0.0179 | 0.0179 | 
36 | TIIVHLNESV | 0.0350 | 0.0350 | 
37 | FLYGALLL | 0.0345 | 0.0345 | 
38 | RTLTLLSVV [Peptide 9013.0075] |  |  | IC50 [18]: 88 nM; IC50 [19]: > 20000 nM; IC50 [20]: 6020 nM; IC50 [21]: 300 nM; IC50 [22]: 505 nM
39 | LLVFACSAV | 0.0107 | 0.0107 | 
40 | RLLTLLSVT [Peptide 9013.0076] |  |  | IC50 [18]: 482 nM; IC50 [19]: > 20000 nM; IC50 [20]: 4610 nM; IC50 [21]: 1600 nM; IC50 [22]: 1830 nM
41 | YLWWVNNQSV [Peptide 9013.0197] |  |  | IC50 [18]: 65 nM; IC50 [19]: 17 nM; IC50 [20]: 1.2 nM; IC50 [21]: 4.2 nM; IC50 [22]: 8.9 nM
42 | IAATYNFAV | 0.0540 | 0.0540 | 
43 | FLVAFKQFL [Peptide 1578.42] |  |  | IC50 [18]: 81 nM; IC50 [19]: 1400 nM; IC50 [20]: 0.43 nM; IC50 [21]: 4.7 nM; IC50 [22]: 55 nM
44 | TILQQLLFI [Peptide 1525.26] |  |  | IC50 [18]: 91 nM; IC50 [19]: 7030 nM; IC50 [20]: 2790 nM; IC50 [21]: 367 nM; IC50 [22]: 95 nM
45 | LLYKLDIVSI | 0.0245 | 0.0245 | 
46 | VLAEAMGQV [Peptide 1539.05] |  |  | IC50 [18]: 75 nM; IC50 [19]: 168 nM; IC50 [20]: 1.7 nM; IC50 [21]: 3.2 nM; IC50 [22]: 55 nM
47 | FIMIVGGLV | 0.0131 | 0.0131 | 
48 | SLCADARMYGV | 0.0140 | 0.0140 | 
49 | IKFFQGSVISFVNSQ [Peptide 89.0136] |  |  | IC50 [5]: > 20 µM; IC50 [6]: > 20 µM; IC50 [7]: > 20 µM; IC50 [8]: > 20 µM; IC50 [9]: > 20 µM; IC50 [10]: 5.5 µM; IC50 [11]: 11 nM; IC50 [12]: > 20000 nM; IC50 [13]: > 20 µM
